In patent publication US8952024B2, “Herbicidal pyrimidone derivatives” (E I du Pont de Nemours and Company, priority 2009, dated 2015):

Experiments:
Assay type in all cases: in vivo
[1] = tested on: giant foxtail (Setaria faberii); test: Test A pre-/postemergence plant response
Procedure, shortened: (§1)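 Both pre- and postemergence treatments are applied simultaneously, using chemicals formulated in a non-phytotoxic solvent mixture with surfactant. Postemergence plants are 2–10 cm high with one to two leaves. After approximately ten days in a greenhouse, injury is scored visually from 0 (none) to 100 (complete control) relative to untreated plants.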

[2] = tested on: pigweed (Amaranthus retroflexus); test: Test A pre-/postemergence plant response
Procedure, shortened: as §1

[3] = tested on: large crabgrass (Digitaria sanguinalis); test: Test A pre-/postemergence plant response
Procedure, shortened: as §1

[4] = tested on: morningglory (Ipomoea spp.); test: Test A pre-/postemergence plant response
Procedure, shortened: as §1

[5] = tested on: barnyardgrass (Echinochloa crus-galli); test: Test A pre-/postemergence plant response
Procedure, shortened: as §1

[6] = tested on: velvetleaf (Abutilon theophrasti); test: Test A pre-/postemergence plant response
Procedure, shortened: as §1

[7] = tested on: corn (Zea mays); test: Test A pre-/postemergence plant response
Procedure, shortened: as §1

[8] = tested on: wheat (Triticum aestivum); test: Test A pre-/postemergence plant response
Procedure, shortened: as §1

[9] = tested on: barnyardgrass (Echinochloa crus-galli); test: Test B flooded paddy test; conditions: for Plant response rating, Flood, Barnyardgrass: 250 g ai/ha, flooded paddy test, visual rating on 0 to 100 scale (0 no effect, 100 complete control) after 13 to 15 days; for Plant response rating, Barnyardgrass: Flood (flooded paddy test), 13 to 15 days; for Barnyardgrass plant response rating: Flood, 31 g ai/ha, scale 0 to 100 (0 no effect, 100 complete control)
Procedure, shortened: (§2)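 Post-flood paddy application: compounds are introduced into water 3 cm deep over the soil, reaching plants at the 2-leaf stage. The water level is maintained, and after 13–15 days under greenhouse conditions, response is judged by eye relative to controls, where 100 means complete control.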

[10] = tested on: umbrella sedge (Cyperus difformis); test: Test B flooded paddy test; conditions: for Plant response rating, Flood, Sedge, Umbrella: 250 g ai/ha, flooded paddy test, visual rating on 0 to 100 scale (0 no effect, 100 complete control) after 13 to 15 days; for Plant response rating, Sedge, Umbrella: Flood (flooded paddy test), 13 to 15 days; for Sedge, Umbrella plant response rating: Flood, 31 g ai/ha, scale 0 to 100 (0 no effect, 100 complete control)
Procedure, shortened: as §2

[11] = tested on: ducksalad (Heteranthera limosa); test: Test B flooded paddy test; conditions: for Plant response rating, Flood, Ducksalad: 250 g ai/ha, flooded paddy test, visual rating on 0 to 100 scale (0 no effect, 100 complete control) after 13 to 15 days; for Plant response rating, Ducksalad: Flood (flooded paddy test), 13 to 15 days; for Ducksalad plant response rating: Flood, 31 g ai/ha, scale 0 to 100 (0 no effect, 100 complete control)
Procedure, shortened: as §2

[12] = tested on: rice (Oryza sativa); test: Test B flooded paddy test; conditions: for Plant response rating, Flood, Rice: 250 g ai/ha, flooded paddy test, visual rating on 0 to 100 scale (0 no effect, 100 complete control) after 13 to 15 days; for Plant response rating, Rice: Flood (flooded paddy test), 13 to 15 days; for Rice plant response rating: Flood, 31 g ai/ha, scale 0 to 100 (0 no effect, 100 complete control)
Procedure, shortened: as §2

[13] = Postemergence, 125 g ai/ha, 0 to 100 scale where 0 is no effect and 100 is complete control
[14] = Postemergence, 500 g ai/ha, visual injury, 0 to 100 scale (0 no effect, 100 complete control), approx. ten days
[15] = Preemergence, 125 g ai/ha, 0 to 100 scale, 0 = no effect, 100 = complete control
[16] = Preemergence, 500 g ai/ha, 0 to 100 scale, 0 = no effect, 100 = complete control
[17] = 62 g ai/ha, scale of 0 to 100 where 0 is no effect and 100 is complete control
[18] = 125 g ai/ha, scale 0 to 100, 0 is no effect, 100 is complete control
[19] = Postemergence, 500 g ai/ha, 0 to 100 scale, 0 = no effect, 100 = complete control, approx. ten days
[20] = Preemergence, 500 g ai/ha, visual injury, 0 to 100 scale (0 no effect, 100 complete control), approx. ten days

Cc1ccc(-n2c(-c3cccc(C)c3)ncc(C(=O)C3=C(O)CCCC3=O)c2=O)cc1 [Compound 211]
Plant response rating, Foxtail, Giant [1, 13]: 50 | Foxtail, Giant plant response rating [1, 14]: 80 | Plant response rating, Foxtail, Giant [1, 15]: 20 | Plant response rating, Foxtail, Giant [1, 16]: 50 | Plant response rating, Pigweed [2, 13]: 70 | Pigweed plant response rating [2, 14]: 90 | Plant response rating, Pigweed [2, 15]: 40 | Plant response rating, Pigweed [2, 16]: 60 | Plant response rating, Crabgrass, Large [3, 13]: 40 | Crabgrass, Large plant response rating [3, 14]: 80 | Plant response rating, Crabgrass, Large [3, 15]: 10 | Plant response rating, Crabgrass, Large [3, 16]: 90 | Plant response rating, Morningglory [4, 13]: 70 | Morningglory plant response rating [4, 14]: 100 | Plant response rating, Morningglory [4, 15]: 0 | Plant response rating, Morningglory [4, 16]: 10 | Plant response rating, Barnyardgrass [5, 13]: 50 | Barnyardgrass plant response rating [5, 14]: 100 | Plant response rating, Barnyardgrass [5, 15]: 10 | Plant response rating, Barnyardgrass [5, 16]: 70 | Plant response rating, Velvetleaf [6, 13]: 60 | Velvetleaf plant response rating [6, 14]: 70 | Plant response rating, Velvetleaf [6, 15]: 30 | Plant response rating, Velvetleaf [6, 16]: 60 | Plant response rating, Corn [7, 13]: 0 | Corn plant response rating [7, 14]: 20 | Plant response rating, Corn [7, 15]: 0 | Plant response rating, Corn [7, 16]: 0 | Plant response rating, Wheat [8, 13]: 0 | Wheat plant response rating [8, 14]: 0 | Plant response rating, Wheat [8, 15]: 0 | Plant response rating, Wheat [8, 16]: 0 | Plant response rating, Flood, Barnyardgrass [9]: 35 | Plant response rating, Barnyardgrass [9, 17]: 0 | Plant response rating, Barnyardgrass [9, 18]: 25 | Barnyardgrass plant response rating [9]: 0 | Plant response rating, Flood, Sedge, Umbrella [10]: 80 | Plant response rating, Sedge, Umbrella [10, 17]: 0 | Plant response rating, Sedge, Umbrella [10, 18]: 70 | Sedge, Umbrella plant response rating [10]: 0 | Plant response rating, Flood, Ducksalad [11]: 85 | Plant response rating, Ducksalad [11, 18]: 85 | Ducksalad plant response rating [11]: 50 | Plant response rating, Flood, Rice [12]: 15 | Plant response rating, Rice [12, 17]: 0 | Plant response rating, Rice [12, 18]: 0 | Rice plant response rating [12]: 0

CCCn1c(-c2ccccc2F)ncc(C(=O)C2=C(O)CCCC2=O)c1=O [Compound 101]
Plant response rating, Foxtail, Giant [1, 13]: 60 | Plant response rating, Foxtail, Giant [1, 19]: 80 | Plant response rating, Foxtail, Giant [1, 15]: 30 | Plant response rating, Foxtail, Giant [1, 20]: 50 | Plant response rating, Pigweed [2, 13]: 90 | Plant response rating, Pigweed [2, 19]: 100 | Plant response rating, Pigweed [2, 15]: 70 | Plant response rating, Pigweed [2, 20]: 80 | Plant response rating, Crabgrass, Large [3, 13]: 90 | Plant response rating, Crabgrass, Large [3, 19]: 90 | Plant response rating, Crabgrass, Large [3, 15]: 70 | Plant response rating, Crabgrass, Large [3, 20]: 90 | Plant response rating, Morningglory [4, 13]: 60 | Plant response rating, Morningglory [4, 19]: 70 | Plant response rating, Morningglory [4, 15]: 80 | Plant response rating, Morningglory [4, 20]: 80 | Plant response rating, Barnyardgrass [5, 13]: 80 | Plant response rating, Barnyardgrass [5, 19]: 90 | Plant response rating, Barnyardgrass [5, 15]: 20 | Plant response rating, Barnyardgrass [5, 20]: 70 | Plant response rating, Velvetleaf [6, 13]: 100 | Plant response rating, Velvetleaf [6, 19]: 100 | Plant response rating, Velvetleaf [6, 15]: 80 | Plant response rating, Velvetleaf [6, 20]: 100 | Plant response rating, Corn [7, 13]: 0 | Plant response rating, Corn [7, 19]: 10 | Plant response rating, Corn [7, 15]: 0 | Plant response rating, Corn [7, 20]: 0 | Plant response rating, Wheat [8, 13]: 0 | Plant response rating, Wheat [8, 19]: 0 | Plant response rating, Wheat [8, 15]: 0 | Plant response rating, Wheat [8, 20]: 0 | Plant response rating, Flood, Barnyardgrass [9]: 40 | Plant response rating, Barnyardgrass [9, 17]: 40 | Plant response rating, Barnyardgrass [9, 18]: 40 | Barnyardgrass plant response rating [9]: 20 | Plant response rating, Flood, Sedge, Umbrella [10]: 65 | Plant response rating, Sedge, Umbrella [10, 17]: 20 | Plant response rating, Sedge, Umbrella [10, 18]: 30 | Sedge, Umbrella plant response rating [10]: 0 | Plant response rating, Flood, Ducksalad [11]: 30 | Plant response rating, Ducksalad [11, 17]: 30 | Plant response rating, Ducksalad [11, 18]: 30 | Ducksalad plant response rating [11]: 20 | Plant response rating, Flood, Rice [12]: 20 | Plant response rating, Rice [12, 17]: 0 | Plant response rating, Rice [12, 18]: 0 | Rice plant response rating [12]: 0
